Our source for the Results and UBC10 values is patent US20080039629A1, “Benzothniazole compositions and their use as ubiquition ligation inhibitors” (RIGEL PHARMACEUTICALS, INC., priority 2003, published 2008).

Each structure is given as a SMILES string.

The target in test [1] is T1, E1 and His-E2 Ubch10 (UBC10) (Homo sapiens, UniProt P22314).
T1 construct: host or cells: E. coli (His-Ubch10); Sf9 insect cells (E1)
T1 sequence (P22314 1-1058): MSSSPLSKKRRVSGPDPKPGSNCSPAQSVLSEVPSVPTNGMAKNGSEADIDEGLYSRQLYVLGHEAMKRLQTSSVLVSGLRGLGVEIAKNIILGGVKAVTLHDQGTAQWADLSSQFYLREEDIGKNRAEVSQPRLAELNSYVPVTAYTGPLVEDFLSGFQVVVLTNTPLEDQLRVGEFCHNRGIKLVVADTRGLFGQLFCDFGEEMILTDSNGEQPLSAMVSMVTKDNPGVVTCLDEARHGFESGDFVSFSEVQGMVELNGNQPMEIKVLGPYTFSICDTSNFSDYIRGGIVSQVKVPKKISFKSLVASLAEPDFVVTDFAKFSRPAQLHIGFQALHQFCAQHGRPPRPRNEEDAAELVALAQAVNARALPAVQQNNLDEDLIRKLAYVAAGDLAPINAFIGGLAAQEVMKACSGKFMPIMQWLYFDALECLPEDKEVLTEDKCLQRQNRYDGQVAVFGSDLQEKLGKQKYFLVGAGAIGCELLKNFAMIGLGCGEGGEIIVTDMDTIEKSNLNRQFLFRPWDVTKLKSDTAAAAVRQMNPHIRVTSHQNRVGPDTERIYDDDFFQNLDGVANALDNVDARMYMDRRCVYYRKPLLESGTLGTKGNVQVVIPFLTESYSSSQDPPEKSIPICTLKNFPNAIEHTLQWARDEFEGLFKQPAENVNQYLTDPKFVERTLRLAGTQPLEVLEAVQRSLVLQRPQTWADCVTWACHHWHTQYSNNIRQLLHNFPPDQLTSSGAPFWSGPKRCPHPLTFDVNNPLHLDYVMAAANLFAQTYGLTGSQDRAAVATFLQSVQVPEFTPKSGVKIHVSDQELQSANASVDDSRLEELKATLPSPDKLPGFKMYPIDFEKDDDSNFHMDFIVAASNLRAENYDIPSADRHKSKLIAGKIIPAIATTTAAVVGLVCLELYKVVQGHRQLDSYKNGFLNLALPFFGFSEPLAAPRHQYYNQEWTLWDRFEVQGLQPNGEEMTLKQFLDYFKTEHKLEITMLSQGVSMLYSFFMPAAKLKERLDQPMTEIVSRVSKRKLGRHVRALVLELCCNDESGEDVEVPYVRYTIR
As to the kind of experiment: ATP competitive assay, 200 μM ATP (high ATP). It counts as biochemical. Conditions: conclusion from UBC10 inhibition at 1 μM versus 200 μM ATP. Here is the method: The attachment of a ubiquitin moiety to the E2 conjugating agent was assayed using Flag-ubiquitin that was purified from E. coli, E2 Ubch10 that was purified as a His-Ubch10 from E. coli, and E1 that was purified from Sf9 insect cells (Affiniti Research Products, Exeter, U.K.). The wells of a Nickel-substrate 96-well plate (Pierce Chemical) were blocked with 100 μl of 1% casein/phosphate buffered saline (PBS) for 1 hour at room temperature. The blocked Nickel-substrate plate was then washed three times with 200 μl of PBST (0.1% Tween-20 in PBS). […] The final reaction solution volume was fixed to 80 μl with Millipore-filtered water. To this was added the following: a ubiquitin agent inhibitor in 10 μl of DMSO, 10 μl of E1 and His-E2 Ubch10 in 20 mM Tris buffer, pH 7.5, and 5% glycerol so that there was 10 ng/well of E1 and 20 ng/well of His-E2 Ubch10. […]
After 1 hour, the wells were washed three times with 200 μl of PBST and the amount of E2-ubiquitin complex was measured. […] The luminescence of each well was then measured using a […] to calculate the amount of E2-ubiquitin complex. […]
The table below illustrates the ATP competitive inhibition properties of the pharmaceutical compositions of the invention comprising the compounds listed in the table using the ATP competitive assay described above. Inhibition was measured using IC50 values.

The target of test [2] is T2, E1 and His-E2 Ubch10 (Homo sapiens, UniProt P22314).
T2 construct: host or cells: E. coli (His-Ubch10); Sf9 insect cells (E1)
T2 sequence (P22314 1-1058): T1 sequence (P22314 1-1058)
As to the kind of experiment: E1 to E2 transfer assay, His-E2 Ubch10, 1.0 μM ATP (low ATP). The conditions noted are these: Table 5, ATP inhibition properties; inhibition measured using IC50 values. Format: biochemical. The method in brief:
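His-Ubch10 (20 ng/well), E1 (10 ng/well) and Flag-ubiquitin (100 ng) reacted 1 h at room temperature on nickel plates in 62.5 mM Tris pH 7.5, 0.75 mM DTT, 1.0 μM ATP with inhibitor. E2-ubiquitin complex detected by anti-Flag/HRP luminescence; IC50 determined.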

As for `COc1ccc2nc(NC(=O)c3ccc(C)cc3)sc2c1` [Compound 3, N-(6-methoxy-1,3-benzothiazoi-2-yl)-4-methylbenzamide], in test [1], the Results entry is “ATP competitve”.

As for `COc1ccc2sc(NC(=O)c3ccc4c(c3)OCCO4)nc2c1` [Compound 14, N-(5-methoxy-1,3-benzothiazol-2-yl)-2,3-dihydro-1,4-benzodioxine-6-carboxamide], the Results result in test [1] is “ATP competitve”.

For `CC(C)c1ccc(C(=O)Nc2nc3ccccc3s2)cc1` [Compound 222, N-(benzo[d]thiazol-2-yl)-4-isopropylbenzamide], the UBC10 result in test [2] was “−− (−− indicates marginal or no inhibition detected with this assay)”.

Consider `CN(C)c1ccccc1C(=O)Nc1nc2ccccc2s1` [Compound 223, N-(benzo[d]thiazol-2-yl)-2-(dimethylamino)benzamide], for which, in test [2], the UBC10 entry is reported as “−− (−− indicates marginal or no inhibition detected with this assay)”.

In the case of `O=C(Nc1nc2ccccc2s1)[C@H]1CCN1` [Compound 224, (R)-N-(benzo[d]thiazol-2-yl)azetidine-2-carboxamide], the UBC10 entry in test [2] is reported as “−− (−− indicates marginal or no inhibition detected with this assay)”.

On to `O=C(Nc1nc2ccccc2s1)C1CCNCC1` [Compound 225, N-(benzo[d]thiazol-2-yl)piperidine-4-carboxamide], for which the UBC10 result in test [2] is on record as “−− (−− indicates marginal or no inhibition detected with this assay)”.
